Patent publication US8207203B2, “Pyridylisoxazole derivatives” (Aska Pharmaceutical Co., Ltd., priority 2006, dated 2012)

Assays:
[1] = Measurement of the compounds' metabolic rate (human liver S9, LC/MS/MS); format: in vitro ADME; conditions: human liver S9 0.5 mg protein/mL, compound 1 μmol/L, NADPH generating system, pH7.4, 37° C.
Method: (2) Measurement of the Compounds' Metabolic Rate:
Each test compound was added to potassium phosphate buffer (50 mmol/L, pH7.4) containing NADPH generating system (comprising 3.3 mmol/L MgCl2, 3.3 mmol/L glucose 6-phosphate, 1.3 mmol/L β-NADP^+ and 0.4 unit/mL glucose 6-phosphate dehydrogenase) (in which occasion the final concentration was rendered 1 μmol/L) and incubated at 37° C. for 2 minutes. After the incubation, a suspension of human liver S9 (the supernatant fraction obtained by centrifuging comminuted human liver cell fluid at 9000×g) in potassium phosphate buffer was added to the system, to the final concentration of 0.5 mg protein/mL. This reaction mixture was incubated at 37° C. for 5 minutes, and to which 4 volume times the reaction mixture of acetonitrile was added, mixed, cooled with ice and centrifuged (2000×g, 10 minutes). A part of the supernatant was taken and analyzed by LC/MS/MS, to determine the remaining rate of unchanged substance in the reaction solution. The results are shown in the following Table A, concurrently with the measured results of TNF-α production-inhibiting action in (1) above.

[2] = tested on: TNF-α production; experiment: Measurement of TNF-α production-inhibiting action (LPS-stimulated THP-1 cells, ELISA); format: cell-based; conditions: Homo sapiens; test substance 100 nM; THP-1 cells with LPS, 2 hours' culture; TNF-α in supernatant by ELISA; read-out: TNF-α generation-inhibiting action (inhibition: rate: %, 100 nM)
Method: (1) Measurement of TNF-α Production-Inhibiting Action
THP-1, human-derived culture cells (purchased from Dainippon Pharmaceutical Co.), was suspended (1×10^5 cells/mL) in RPMI 1640 medium (10% fetal bovine serum, containing 100 units/mL of penicillin). The THP-1 cell suspension 1.6 mL was inoculated in a 24-well culture plate, to which further a solution of test substance as dissolved in RPMI 1640 medium to make the final concentration of the test substance 100 nM and 0.2 mL of LPS (E. coli 055: B5-derived, dissolved in RPMI 1640 medium, Difco) of 10 μg/mL in concentration were added, followed by 2 hours' culture under the conditions of 37° C. and 5% CO2. The supernatant which was obtained upon centrifuge (500×g, 5 minutes) was measured with ELISA (Amersham Biosciences, TNF-α Human, ELISA Biotrak System) to quantize TNF-α. The TNF-α production inhibition rate (%) at 100 nM of each test substance was calculated according to the following formula, […]

| Compound | percent of unchanged compound remaining after 5 min [1] [%] | inhibition at 0.1 µM [2] [%] |
| --- | --- | --- |
| Cc1cccc(-c2noc(NC(=O)CCc3ccccc3)c2-c2ccncc2)c1 [Example 103, 3-(3-Methylphenyl)-5-(3-phenylpropionylamino)-4-(4-pyridyl)-isoxazole] | 17.6 | 65.5 |
| Cc1cccc(-c2noc(NC(=O)CCc3ccccc3C)c2-c2ccncc2)c1 [Example 106, 3-(3-Methylphenyl)-5-[(2-methylphenyl)propionylamino]-4-(4-pyridyl)isoxazole] | 23.3 | 52.9 |
| Cc1ccc(F)c(-c2noc(NC(=O)CCc3cccc(Cl)c3)c2-c2ccncc2)c1 [Example 117, 5-[(3-Chlorophenyl)propionylamino]-3-(2-fluoro-5-methylphenyl)-4-(4-pyridyl)isoxazole] | 50.5 | 58.1 |
| Cc1cc(-c2noc(NC(=O)Cc3ccccc3)c2-c2ccncc2)ccc1F [Example 123, 3-(4-Fluoro-3-methylphenyl)-5-(phenylacetylamino)-4-(4-pyridyl)-isoxazole] | 58.0 | 78.1 |
| Cc1cc(-c2noc(NC(=O)Cc3ccccc3Cl)c2-c2ccncc2)ccc1F [Example 124, 5-[(2-Chlorophenyl)acetylamino]-3-(4-fluoro-3-methylphenyl)-4-(4-pyridyl)isoxazole] | 59.7 | 85.2 |
| Cc1cc(-c2noc(NC(=O)CCc3ccccc3)c2-c2ccncc2)ccc1F [Example 125, 3-(4-Fluoro-3-methylphenyl)-5-(3-phenylpropionylamino)-4-(4-pyridyl)isoxazole] | 20.1 | 66 |
